{"source": "patent US20180078615A1", "about": "“USE OF CCL2 TO INHIBIT ABNORMAL UTERINE BLEEDING” (UNIVERSITY OF SOUTH FLORIDA, priority 2015, published 2018)", "key": {"VSMCs [1]": {"test_system": "VSMCs", "experiment": "Transwell insert migration assay", "assay_type": "cell-based, human", "conditions": "12-h incubation, 10^−7 M; control 48.4%", "description": "VSMCs (75,000 cells/200 μL) were suspended in M231 containing 1% charcoal striped FBS and either 0.1% ethanol (vehicle control) or the corresponding steroids and seeded onto insert wells (transwell filter with 12-μm pores; EMD Millipore). The inserts were then placed in 24-well plates containing 500 μL M231 with 1% charcoal striped FBS. After 12 h, cells remaining on the upper surface of the filter were removed with a cotton swab. Migrated cells were trypsinized, centrifuged, and resuspended in 200 μL of M231 medium. The cell suspensions were mixed with 200 μL 10% ethanol containing 0.4% Trypan blue dye and the live cell number was counted by Countess Automated Cell Counter (Invitrogen). See further details in SI Materials and Methods.\nCultured VSMCs were grown in T-75 cell culture flasks in M231 (Life Technologies) with smooth muscle growth supplement (Life Technologies) with 100 U/mL penicillin, 100 μg/mL streptomycin, 0.25 μg/mL fungizone. Confluent VSMCs were washed twice with 1×PBS to remove residual serum, and then trypsinized, resuspended (75,000 cells per 200 μL per well) in M231 with 1% charcoal striped FBS with 0.1% ethanol (vehicle, control), 10^−7 M MPA (Sigma-Aldrich), 10^−7 M ETO (Organon), or 10^−7 M P4 (Sigma-Aldrich)±rCCL2 (R&D Systems) and seeded on insert wells (transwell filter with 12-μm pores; EMD Millipore), which were then placed in 24-well plates containing 500 μL M231 with 1% charcoal striped FBS. After 12 h, cells remaining on the upper surface of the filter were removed with a cotton swab. Migrated cells attached to the lower surface of each insert or to the surface of lower wells were collected by trypsinization, followed by centrifugation and resuspension in 200 μL of M231 medium. The cell suspensions were mixed with 200 μL 10% ethanol containing 0.4% Trypan blue dye (selectively stains only dead cells blue, whereas live cells with intact cell membranes remain unstained) for 5 min. A mixture of 100 μL M231 and 100 μL 10% ethanol containing 0.4% Trypan blue dye was used as a negative control. To detect live cell numbers, 10 μL of final cell/Trypan blue dye suspension from each treatment condition was pipetted into Countess Cell Counting Chamber Slide and counted by using Countess Automated Cell Counter (Invitrogen). The counting procedure was performed in duplicate."}, "VSMCs [2]": {"test_system": "VSMCs", "experiment": "Whole genome microarray analysis (Illumina HumanHT-12 v4) of cultured VSMCs treated with progestins", "assay_type": "cell-based, human", "conditions": "VSMCs treated by P4", "from_the_text": "Cultured VSMCs (n=3) treated with control medium or medium containing medroxyprogesterone acetate (MPA, 10^−7 M), or etonogestrel (ETO, 10^−7 M) were processed for whole genome analyses using Illumina Human microarray kit. After qRT-PCR confirmation of several up and down regulated genes from microarray data, Ingenuity Pathway Analysis (IPA) determined relevant upstream signaling of LAPC altered gene expression. To investigate the role of genes and relevant signaling molecules identified by IPA, VSMCs (n=3) treated with MPA or ETO±1 or 10 ng/ml recombinant CCL2 (rCCL2)±STAT1 inhibitor, 5′-methyl-thioadenosine (MTA, 100 μM) were analyzed by BrdU incorporation proliferation, TUNEL based ELISA apoptosis and Transwell insert migration assays.\nVSMCs were thawed and cultured in medium 231 (M231; Life Technologies) with smooth muscle growth supplement (5% FBS; 2 ng/mL human basic fibroblast growth factor, 0.5 ng/mL human epidermal growth factor, 5 ng/mL heparin, 0.2 μg/mL insulin and 5 μg/mL BSA; Life Technologies) with 100 U/mL penicillin, 100 μg/mL streptomycin, 0.25 μg/mL fungizone. Confluent VSMCs were washed twice with 1×PBS to remove residual serum, passaged in 96-well or 6-well plates and incubated in parallel in M231 with 1% charcoal striped FBS with 0.1% ethanol (vehicle, control) or 10^−7 M MPA (Sigma-Aldrich) or 10^−7 M ETO (Organon) or 10^−7 M P4 (Sigma-Aldrich) for 15 min, 6, 48, and 72 h. VSMCs were then washed with ice-cold PBS and stored at −80° C. for further RNA and protein analyses.\nTotal RNA was isolated using Qiagen miRNeasy Mini Kit (Qiagen) and RNeasy MinElute Cleanup Kit (Qiagen). The quality of isolated RNAs was confirmed using an Agilent 2100 Bioanalyzer. Microarray analysis was limited to those specimens in which RNA Integrity Number exceeded 8. Microarray processes were performed in the Keck Biotechnology Resource Laboratory at Yale University (New Haven, Conn.) using Illumina Human HT-12 v4 BeadChip (Illumina). Raw data without normalization were analyzed by GeneSpring GX12.5 software (Agilent Technologies-Silicon Genetics). Normalization was performed as described (35). Genes with a fold-change >1.25 and a P value<0.05 were considered differentially expressed. Ingenuity Pathway Analysis (IPA) software (Qiagen) explored molecular and biological networks related to differentially expressed genes."}}, "data": [{"smiles": "CC(=O)[C@H]1CC[C@H]2[C@@H]3CCC4=CC(=O)CC[C@]4(C)[C@H]3CC[C@]12C", "note": "[P4, progesterone]", "values": [{"measurement": "migration rate", "setting": "VSMCs [1]", "result": 39.4, "unit": "%"}, {"measurement": "Fold-change, Chemokine (C-C motif) ligand 2 (CCL2)", "setting": "VSMCs [2]", "result": "−1.289"}, {"measurement": "Fold-change, Chromosome 9 ORF 167 (C9orf167)", "setting": "VSMCs [2]", "result": "−1.283"}, {"measurement": "Fold-change, Complement factor B (CFB)", "setting": "VSMCs [2]", "result": "−1.309"}, {"measurement": "Fold-change, Complement factor H, transcript variant 2 (CFH)", "setting": "VSMCs [2]", "result": 1.271}, {"measurement": "Fold-change, Cyclin C, transcript variant 2 (CCNC)", "setting": "VSMCs [2]", "result": 1.343}, {"measurement": "Fold-change, Eukaryotic translation initiation factor 4 gamma, 2, transcript variant 1 (EIF4G2)", "setting": "VSMCs [2]", "result": 1.3}, {"measurement": "Fold-change, Fukutin, transcript variant 2 (FKiTN)", "setting": "VSMCs [2]", "result": "−1.299"}, {"measurement": "Fold-change, G protein-coupled receptor 1 (GPR1)", "setting": "VSMCs [2]", "result": "−1.283"}, {"measurement": "Fold-change, Homo sapiens thioredoxin domain containing 5, transcript variant 2 (TXNDC5)", "setting": "VSMCs [2]", "result": 1.361}, {"measurement": "Fold-change, Hypothetical LOC100190938 (LOC100190938), transcript variant 2, noncoding RNA", "setting": "VSMCs [2]", "result": "−1.358"}, {"measurement": "Fold-change, Hypothetical gene supported by AK125735 (LOC441087)", "setting": "VSMCs [2]", "result": "−1.467"}, {"measurement": "Fold-change, Hypothetical protein FLJ40504 (FLJ40504)", "setting": "VSMCs [2]", "result": "−1.27"}, {"measurement": "Fold-change, Hypoxia-inducible factor 1, a subunit, transcript variant 1 (HIF1A)", "setting": "VSMCs [2]", "result": 1.328}, {"measurement": "Fold-change, Integrin beta 1, transcript variant 1C-2 (ITGB1)", "setting": "VSMCs [2]", "result": 1.293}, {"measurement": "Fold-change, Interleukin 33 (IL33)", "setting": "VSMCs [2]", "result": 1.275}, {"measurement": "Fold-change, Janus kinase 1 (JAK1)", "setting": "VSMCs [2]", "result": 1.292}, {"measurement": "Fold-change, Keratin 34 (KRT34)", "setting": "VSMCs [2]", "result": 1.268}, {"measurement": "Fold-change, Microtubule-associated protein 1A (MAP1A)", "setting": "VSMCs [2]", "result": "−1.269"}, {"measurement": "Fold-change, Minichromosome maintenance complex component 8, transcript variant 1 (MCM8)", "setting": "VSMCs [2]", "result": "−1.32"}, {"measurement": "Fold-change, Mitogen-activated protein kinase kinase 2 (MAP2K2)", "setting": "VSMCs [2]", "result": "−1.346"}, {"measurement": "Fold-change, N-deacetylase/N-sulfotransferase (heparan glucosaminyl) 1 (NDST1)", "setting": "VSMCs [2]", "result": "−1.306"}, {"measurement": "Fold-change, OCIA domain containing 1, transcript variant 5 (OCIAD1)", "setting": "VSMCs [2]", "result": "−1.275"}, {"measurement": "Fold-change, PREDICTED: misc_RNA (LOC100131609)", "setting": "VSMCs [2]", "result": 1.266}, {"measurement": "Fold-change, Paralemmin, transcript variant 1 (PALM)", "setting": "VSMCs [2]", "result": "−1.26"}, {"measurement": "Fold-change, Polyribonucleotide nucleotidyltransferase 1 (PNPT1)", "setting": "VSMCs [2]", "result": "−1.286"}, {"measurement": "Fold-change, Retinoic acid receptor responder (tazarotene induced) 1, transcript variant 1, (RARRES1)", "setting": "VSMCs [2]", "result": "−1.271"}, {"measurement": "Fold-change, Retinoic acid receptor responder (tazarotene induced) 1, transcript variant 2, (RARRES1)", "setting": "VSMCs [2]", "result": "−1.289"}, {"measurement": "Fold-change, Ring finger protein 11 (RNF11)", "setting": "VSMCs [2]", "result": 1.256}, {"measurement": "Fold-change, Serum amyloid A1, transcript variant 1 (SAA1)", "setting": "VSMCs [2]", "result": "−1.324"}, {"measurement": "Fold-change, Serum amyloid A1 transcript variant 2 (SAA1)", "setting": "VSMCs [2]", "result": "−1.566"}, {"measurement": "Fold-change, Solute carrier family 44, member 1 (SLC44A1)", "setting": "VSMCs [2]", "result": 1.26}, {"measurement": "Fold-change, Staphylococcal nuclease and tudor domain containing 1 (SN D1)", "setting": "VSMCs [2]", "result": "−1.25"}, {"measurement": "Fold-change, Sterol-C4-methyl oxidase-like, transcript variant 1 (SC4MOL)", "setting": "VSMCs [2]", "result": 1.296}, {"measurement": "Fold-change, Superoxide dismutase 2, mitochondria! transcript variant 2 (SOD2)", "setting": "VSMCs [2]", "result": "−1.362"}, {"measurement": "Fold-change, Thioredoxin reductase 1, transcript variant 4 (TXNRD1)", "setting": "VSMCs [2]", "result": 1.255}, {"measurement": "Fold-change, Ubiquitin-like modifier activating enzyme 3, transcript variant 2 (UBA3)", "setting": "VSMCs [2]", "result": 1.293}, {"measurement": "Fold-change, Zinc finger protein 682, transcript variant 1 (ZNF682)", "setting": "VSMCs [2]", "result": "−1.254"}, {"measurement": "Fold-change, cDNA FLJ20769 fis, clone COL06674 (PREDICTED: Receptor tyrosine kinase-like orphan receptor 1)", "setting": "VSMCs [2]", "result": 1.271}, {"measurement": "Fold-change, Armadillo repeat containing, X-linked 3, transcript variant 2 (ARMCX3)", "setting": "VSMCs [2]; table entry 5", "result": 1.298}, {"measurement": "Fold-change, Armadillo repeat containing, X-linked 3, transcript variant 2 (ARMCX3)", "setting": "VSMCs [2]; table entry 10", "result": 1.284}]}]}
